Tests used:
A2 receptors = assay: Ligand status at adenosine A2 receptor; assay type: binding
[1] = tested on: dogs with advanced heart failure; assay: Single-dose 6 hours infusion study, hemodynamic, ventriculographic, echocardiographic, MVO2 and P-V loop measures; assay type: in vivo, dog; details: HF dogs n=6
Protocol: Studies were performed in purpose-bred, healthy and conditioned mongrel dogs weighing between 20 and 30 kg. The study was approved by Henry Ford Health System Institutional Animal Care and Use Committee and conformed to the National Institute of Health “Guide and Care for Use of Laboratory Animals” and the “Position of the American Heart Association on Research Animal Use” (Position of the American Heart Association on Research Animal Use. Circulation 1985; 71; 49A-50A).
Chronic LV dysfunction and failure was produced by multiple sequential intracoronary embolizations with polystyrene Latex; coronary microembolizations were performed during cardiac catheterization under general anesthesia and sterile conditions (Sabbah H N, et al. Am J Physiol (1991) 260:H1379-84; Sabbah H N, et al. Circulation (1994) 89:2852-9; Sabbah H N, et al. Am J Cardiol 99:41 A-46A, (2007)). Anesthesia was induced using a combination of intravenous injections of oxymorphone hydrochloride (0.22 mg/kg) and diazepam (0.2-0.6 mg/kg). Plane of anesthesia was maintained throughout the study using 1% to 2% isoflurane. Left and right heart catheterizations were performed via a femoral arteriotomy and venotomy. Coronary microembolizations were discontinued when LV ejection fraction, determined angiographically, was about 25%. A period of 2 weeks was allowed after the last microembolization to ensure that infarctions produced by the last microembolizations have completely healed and heart failure was established before the study is undertaken.
(§1) Six heart failure dogs described in Example 1 were used. Studies using active drug and placebo were performed in each dog in random order a minimum of one week apart. After baseline hemodynamic, angiographic and echocardiographic measurements, GP-531 tartrate or placebo was administered as a continuous constant intravenous infusion for 6 hours. The dose of GP-531 tartrate was 10 μg/kg/min. Complete hemodynamic, angiographic and echocardiographic measurements were made during baseline, and at 1, 2, 3, 4, 5 and 6 hours after initiating drug infusion. In addition, myocardial oxygen consumption (MVO2) was measured at baseline and 4 and 6 hours after initiating drug or saline infusion. LV pressure-volume relationships (P-V Loops) were also measured at baseline and at 6 hours after initiating drug or saline infusion to assess load independent contractility and relaxation. Venous blood samples were obtained at baseline and hourly thereafter. Blood samples (at least […]) were centrifuged at 3000 rpm for 10 minutes and plasma withdrawn and placed in cryostorage tubes and stored upright at −20° C. until needed. Venous blood samples were used to evaluate plasma levels of troponin-I and plasma levels of n-terminal pro-brain natriuretic peptide (NT-proBNP).
Study Primary End-Points were: (1) change in LV ejection fraction determined from ventriculography; (2) change in LV end-systolic and end-diastolic volume determined from ventriculography; (3) change in MVO2; and (4) change in the slope of the LV end-systolic and end-diastolic P-V relationship.
All hemodynamic measurements were made during left and right heart catheterizations in anesthetized dogs at each specified study time point. Heart rate (HR), mean aortic pressure (mAoP), LV end-diastolic pressure (LVEDP), stroke volume (SV), cardiac output (CO) and systemic vascular resistance (SVR) were measured at each study time point. Left ventriculograms were performed during cardiac catheterization after completion of the hemodynamic measurements. Left ventriculograms were obtained with the dog placed on its right side and digitally recorded during the injection of 20 ml of contrast material (RENO-M-60 Squibb, Princeton, N.J.). Correction for image magnification was made using a radiopaque grid placed at the level of the LV. […]

NT-ProBNP = assay: Plasma NT-proBNP, 6 hours infusion study; assay type: in vivo, dog; details: HF dogs n=6; for Plasma NT-ProBNP: iv 10 μg/kg/min constant infusion
Protocol: as §1
Plasma biomarkers were measured in all dogs at all study time points. Troponin I (TnI) was determined in plasma based on the principle of the double antibody sandwich enzyme-linked immunosorbent assay (ELISA) (Hirano, T., et al, Immunol Today 1990, 11:443-449) and NT-pro-BNP based on competitive ELISA (Bonow, R. O. Circulation 1996, 93:1946-1950). Both biomarkers were assayed using commercially available assay kits. Kits for NT-proBNP and TnI were purchased from ALPCO Diagnostics, Salem, N.H. Using standard curves and software, the concentration of each biomarker was expressed as ng/ml for TnI and fmol/ml for NT-proBNP.

[2] = previous studies; cited from earlier work
[3] = Octanol:water partition coefficient; assay type: physicochemical; details: read-out: Octanol: water partition coefficient (log P)
Excerpt: Administering a better absorbed more lipophilic prodrug, which is subsequently hydrolysed to GP531, achieves an increase in the systemic availability of GP531.

[4] = iv 10 μg/kg/min for 6 h, vs baseline

## NC(=O)c1ncn(C2OC(CNCc3ccccc3)C(O)C2O)c1N [GP-531, 5-amino-1-β-D-(5-benzylamino-5-deoxy-1-β-D-ribofuranosyl)imidazole-4 carboxamide]
A2 receptors
  Ligand for A2 receptors: has not been shown to be a ligand
[1]; iv 10 μg/kg/min
  Time after initiating drug infusion at which improvements (EDV, ESV, EF, FAS) occurred: 1 to 3 h
[1]; iv 10 μg/kg/min for 6 h
  Acute decompensation: None of the dogs treated with GP-531 developed acute decompensation
  Changes in MVO2: absence of any changes
  Death: none died
  Effect on peak +dP/dt: no significant effects
  Effect on peak −dP/dt: no significant effects
[1]; iv 10 μg/kg/min for 6 h, time-dependent, significance at 5 hours
  Effect on LVEDP: significantly decreased
[1]; [4]
  Effect on CO: significant increase
  Effect on EDV: modest but statistically significant effect on reducing
  Effect on EF (LVEF): increased
  Effect on ESV: significantly decreased
  Effect on FAS: increased
  Effect on SV: significant increase
  Effect on SVR: decrease
[1]; iv 10 μg/kg/min, 6 h vs baseline
  Effect on slope of the ESPVR: significantly increased
NT-ProBNP; 1 h
  Plasma NT-ProBNP: 140 ± 13 fmol/mL
NT-ProBNP; 2 h
  Plasma NT-ProBNP: 131 ± 11 fmol/mL
NT-ProBNP; 3 h
  Plasma NT-ProBNP: 127 ± 12 fmol/mL
NT-ProBNP; 4 h
  Plasma NT-ProBNP: 134 ± 11 fmol/mL
NT-ProBNP; 5 h
  Plasma NT-ProBNP: 130 ± 10 fmol/mL
NT-ProBNP; 6 h
  Plasma NT-ProBNP: 122 ± 10 fmol/mL
NT-ProBNP; iv 10 μg/kg/min for 6 h
  Effect on plasma NT-proBNP: significantly reduced
[2]
  Metabolism: not metabolized
  Route of clearance: cleared almost entirely intact in urine
[3]
  logP: -0.91

From patent US9492468B2, “Methods and compositions for treatment of acute heart failure” (PERICOR THERAPEUTICS, INC., priority 2008, dated 2016)
